Patent US9770026B2, “Substituted pyrimidine compound and uses thereof” (Shenyang Sinochem Agrochemicals R&D Co., Ltd., priority 2012, dated 2017)

How the values were obtained:
[1] = system: cucumber downy mildew; assay: protectant activity in vivo against cucumber downy mildew
[2] = system: corn rust; assay: protectant activity in vivo against corn rust
[3] = system: Diamond back moth; assay: insecticidal activity against diamond back moth, airbrush spray; format: in vivo; conditions: for control (test results against diamond back moth): 600 ppm, mortality after 72 hrs
Procedure: (§1) Compounds were dissolved in mixed solvent (acetone:methanol=1:1), and diluted to required concentration with water containing 0.1% of tween 80.
(§2) Diamond back moth, armyworm, peach aphid and carmine spider mite were used as targets and the method of spraying by airbrush was used for determination of insecticidal biassays.
(§3) The method of spraying by airbrush: The cabbage leaves were made into plates of 2 cm diameter by use of punch. A test solution (0.5 ml) was sprayed by airbrush at the pressure of 0.7 kg/cm^2 to both sides of every plate. 10 Second instar larvae were put into the petri-dishes after the leaf disc air-dried and 3 replicates were set for each treatment. Then the insects were maintained in observation room (25° C., 60˜70% R.H.). Scores were conducted and mortalities were calculated after 72 hrs.

[4] = system: carmine spider mite; assay: bioactivity test against carmine spider mite, airbrush spray; format: in vivo; conditions: for control against carmine spider mite: mortality after 72 hrs
Procedure: as §1, §2
The method: Broadbean shoots with two true leaves in pot were taken, the healthy adults of carmine spider mite were inoculated to the leaves. The adults were counted and then sprayed with airbrush at the pressure of 0.7 kg/cm^2 and at dose of 0.5 ml. 3 replicates were set for each treatment. And then they were maintained in standard observation room. Scores were conducted and mortalities were calculated after 72 hrs.

[5] = system: wheat powdery mildew; assay: protectant activity in vivo against wheat powdery mildew
[6] = system: Green peach aphids (Myzus Persicae Sulzer); assay: bioactivity test against green peach aphid, airbrush foliar spray; format: in vivo; conditions: for control (test results against green peach aphid): death rate after 48 hrs
Method in brief: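 Death rate was scored at 48 hrs, held at 25±1 C and 60±5% RH, following airbrush foliar spray (0.5 mL, 10 psi) onto cabbage leaf discs bearing about 15-30 aphids. Test solutions: compound dissolved in 1:1 acetone:methanol, brought to concentration with 0.1% tween 80 water.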

[7] = system: armyworm; assay: bioactivity test against armyworm, airbrush spray; format: in vivo; conditions: mortality after 72 h
Procedure: as §1, §2
as §3, with “corn” for “cabbage”, “(25 °C,” for “(25° C.,”, “h.” for “hrs.”

Compound: FC(F)(F)c1ccc(Oc2ccc(CCNc3cc(Cl)ncn3)cc2)nc1 [CK69, reference compound]
- pest or weed control at 25 µg/mL ([1]; Cucumis sativus, 168 h, read-out: control effect against cucumber downy mildew (%), 25 mg/L, protectant activity): 50%
- pest or weed control at 50 µg/mL ([1]; Cucumis sativus, 168 h, read-out: control effect against cucumber downy mildew (%), 50 mg/L, protectant activity): 98%
- pest or weed control at 100 µg/mL ([1]; Cucumis sativus, 168 h, read-out: control effect against cucumber downy mildew (%), 100 mg/L, protectant activity): 100%
- pest or weed control at 400 µg/mL ([1]; Cucumis sativus, 168 h, read-out: control effect against cucumber downy mildew (%), 400 mg/L, protectant activity): 100%
- pest or weed control at 6.25 µg/mL ([2]; Zea mays, 168 h, read-out: control effect against corn rust (%), 6.25 mg/L, protectant activity): 0%
- pest or weed control at 25 µg/mL ([2]; Zea mays, 168 h, read-out: control effect against corn rust (%), 25 mg/L, protectant activity): 50%
- pest or weed control at 100 µg/mL ([2]; Zea mays, 168 h, read-out: control effect against corn rust (%), 100 mg/L, protectant activity): 90%
- pest or weed control at 400 µg/mL ([2]; Zea mays, 168 h, read-out: control effect against corn rust (%), 400 mg/L, protectant activity): 100%
- pest or weed control at 10 µg/mL ([3]; 72 h, 10 mg/L): 0%
- pest or weed control at 100 µg/mL ([3]; 72 h, 100 mg/L): 5%
- pest or weed control at 600 µg/mL ([3]; 72 h, 600 mg/L): 100%
- pest or weed control at 10 µg/mL ([4]; Tetranychus cinnabarinus, 72 h, 10 mg/L, contrastive test, read-out: Insecticidal activity against carmine spider mite (% )): 4%
- pest or weed control at 100 µg/mL ([4]; Tetranychus cinnabarinus, 72 h, 100 mg/L, contrastive test, read-out: Insecticidal activity against carmine spider mite (% )): 100%
- pest or weed control at 600 µg/mL ([4]; Tetranychus cinnabarinus, 72 h, 600 mg/L, contrastive test, read-out: Insecticidal activity against carmine spider mite (% )): 100%
- pest or weed control at 6.25 µg/mL ([5]; Triticum aestivum, 168 h, read-out: control effect against wheat powdery mildew (%), 6.25 mg/L, protectant activity): 0%
- pest or weed control at 25 µg/mL ([5]; Triticum aestivum, 168 h, read-out: control effect against wheat powdery mildew (%), 25 mg/L, protectant activity): 0%
- pest or weed control at 100 µg/mL ([5]; Triticum aestivum, 168 h, read-out: control effect against wheat powdery mildew (%), 100 mg/L, protectant activity): 0%
- pest or weed control at 400 µg/mL ([5]; Triticum aestivum, 168 h, read-out: control effect against wheat powdery mildew (%), 400 mg/L, protectant activity): 100%
- pest or weed control at 10 µg/mL ([6]; Myzus persicae, foliar, 48 h, 10 mg/L, contrastive test, read-out: Insecticidal activity against peach aphid (%)): 70%
- pest or weed control at 100 µg/mL ([6]; Myzus persicae, foliar, 48 h, 100 mg/L, contrastive test, read-out: Insecticidal activity against peach aphid (%)): 100%
- pest or weed control at 600 µg/mL ([6]; Myzus persicae, foliar, 48 h, 600 mg/L, contrastive test, read-out: Insecticidal activity against peach aphid (%)): 100%

Compound: Cc1ncnc(NCCc2ccc(Oc3ccc(Cl)nn3)cc2)c1Br [Compound I-4121]
- protectant activity against corn rust in vivo ([2]; 400 ppm): 100%
- control (test results against diamond back moth) [3]: 100%
- protectant activity against wheat powdery mildew in vivo ([5]; 400 ppm): 100%
- control (test results against green peach aphid) ([6]; 10 ppm): 100%
- control (test results against green peach aphid) ([6]; 100 ppm): 100%
- control (test results against green peach aphid) ([6]; 600 ppm): 100%
- control (test results against armyworm) ([7]; 600 ppm): 100%

Compound: CCc1ncnc(NCCc2ccc(Oc3ccc(C(F)(F)F)cn3)cc2)c1Cl [Compound I-6741]
- protectant activity against corn rust in vivo ([2]; 100 ppm): 100%
- protectant activity against corn rust in vivo ([2]; 400 ppm): 100%
- Insecticidal activity against carmine spider mite (% ) ([4]; 10 mg/L, contrastive test): 85%
- Insecticidal activity against carmine spider mite (% ) ([4]; 100 mg/L, contrastive test): 100%
- Insecticidal activity against carmine spider mite (% ) ([4]; 600 mg/L, contrastive test): 100%
- control against carmine spider mite ([4]; 100 ppm): 100%
- control against carmine spider mite ([4]; 600 ppm): 100%
- protectant activity against wheat powdery mildew in vivo ([5]; 100 ppm): 100%
- protectant activity against wheat powdery mildew in vivo ([5]; 400 ppm): 100%
- control (test results against green peach aphid) ([6]; 5 ppm): 100%
- control (test results against green peach aphid) ([6]; 10 ppm): 100%
- control (test results against green peach aphid) ([6]; 100 ppm): 100%
- control (test results against green peach aphid) ([6]; 600 ppm): 100%
- control (test results against armyworm) ([7]; 100 ppm): 100%
- control (test results against armyworm) ([7]; 600 ppm): 100%

Compound: Cc1ncnc(NCCc2ccc(Oc3ccc(C(F)(F)F)cc3Cl)cc2)c1Cl [II-154]
- protectant activity against cucumber downy mildew in vivo ([1]; 400 ppm): 100%
- control effect against corn rust (%) ([2]; 1.6 mg/L, protectant activity): 50%
- control effect against corn rust (%) ([2]; 6.25 mg/L, protectant activity): 100%
- control effect against corn rust (%) ([2]; 25 mg/L, protectant activity): 100%
- control effect against corn rust (%) ([2]; 100 mg/L, protectant activity): 100%
- control effect against corn rust (%) ([2]; 400 mg/L, protectant activity): 100%
- protectant activity against corn rust in vivo ([2]; 6.25 ppm): 100%
- protectant activity against corn rust in vivo ([2]; 25 ppm): 100%
- protectant activity against corn rust in vivo ([2]; 100 ppm): 100%
- protectant activity against corn rust in vivo ([2]; 400 ppm): 100%
- control (test results against diamond back moth) [3]: 100%
- control against carmine spider mite ([4]; 100 ppm): 100%
- control against carmine spider mite ([4]; 600 ppm): 100%
- protectant activity against wheat powdery mildew in vivo ([5]; 100 ppm): 100%
- protectant activity against wheat powdery mildew in vivo ([5]; 400 ppm): 100%
- control (test results against green peach aphid) ([6]; 100 ppm): 100%
- control (test results against green peach aphid) ([6]; 600 ppm): 100%

Compound: CCc1ncnc(NCCc2ccc(Oc3ccc(Cl)cc3Cl)cc2)c1Cl [II-299]
- protectant activity against cucumber downy mildew in vivo ([1]; 100 ppm): 100%
- protectant activity against cucumber downy mildew in vivo ([1]; 400 ppm): 100%
- protectant activity against corn rust in vivo ([2]; 100 ppm): 100%
- protectant activity against corn rust in vivo ([2]; 400 ppm): 100%
- Insecticidal activity against carmine spider mite (% ) ([4]; 10 mg/L, contrastive test): 72%
- Insecticidal activity against carmine spider mite (% ) ([4]; 100 mg/L, contrastive test): 100%
- Insecticidal activity against carmine spider mite (% ) ([4]; 600 mg/L, contrastive test): 100%
- control against carmine spider mite ([4]; 100 ppm): 100%
- control against carmine spider mite ([4]; 600 ppm): 100%
- protectant activity against wheat powdery mildew in vivo ([5]; 400 ppm): 100%
- control (test results against green peach aphid) ([6]; 100 ppm): 100%
- control (test results against green peach aphid) ([6]; 600 ppm): 100%
- control (test results against armyworm) ([7]; 600 ppm): 100%

Compound: CCc1ncnc(NCCc2ccc(Oc3ccc(S(N)(=O)=O)cc3)cc2)c1Cl [II-556]
- control (test results against diamond back moth) [3]: 100%

Compound: COc1cc(CCNc2ncnc(C)c2Cl)ccc1Oc1ccc(Cl)cc1 [II-1687]
- protectant activity against cucumber downy mildew in vivo ([1]; 50 ppm): 100%
- protectant activity against cucumber downy mildew in vivo ([1]; 100 ppm): 100%
- protectant activity against cucumber downy mildew in vivo ([1]; 400 ppm): 100%
- protectant activity against corn rust in vivo ([2]; 100 ppm): 100%
- protectant activity against corn rust in vivo ([2]; 400 ppm): 100%
- control (test results against diamond back moth) [3]: 100%
- control against carmine spider mite ([4]; 600 ppm): 100%
- protectant activity against wheat powdery mildew in vivo ([5]; 25 ppm): 100%
- protectant activity against wheat powdery mildew in vivo ([5]; 100 ppm): 100%
- protectant activity against wheat powdery mildew in vivo ([5]; 400 ppm): 100%
- Insecticidal activity against peach aphid (%) ([6]; 10 mg/L, contrastive test): 100%
- Insecticidal activity against peach aphid (%) ([6]; 100 mg/L, contrastive test): 100%
- Insecticidal activity against peach aphid (%) ([6]; 600 mg/L, contrastive test): 100%
- control (test results against green peach aphid) ([6]; 10 ppm): 100%
- control (test results against green peach aphid) ([6]; 100 ppm): 100%
- control (test results against green peach aphid) ([6]; 600 ppm): 100%

Compound: Cc1ncnc(NCCc2ccc(Oc3cccc(Cl)c3)nc2)c1Cl [III-6]
- protectant activity against corn rust in vivo ([2]; 100 ppm): 100%
- protectant activity against corn rust in vivo ([2]; 400 ppm): 100%
- control (test results against diamond back moth) [3]: 100%
- protectant activity against wheat powdery mildew in vivo ([5]; 400 ppm): 100%
- control (test results against green peach aphid) ([6]; 600 ppm): 100%
- control (test results against armyworm) ([7]; 600 ppm): 100%

Compound: Cc1cc(Cl)ccc1Oc1ccc(CCNc2ncnc(C)c2Cl)cn1 [III-110]
- control effect against cucumber downy mildew (%) ([1]; 25 mg/L, protectant activity): 100%
- control effect against cucumber downy mildew (%) ([1]; 50 mg/L, protectant activity): 100%
- control effect against cucumber downy mildew (%) ([1]; 100 mg/L, protectant activity): 100%
- control effect against cucumber downy mildew (%) ([1]; 400 mg/L, protectant activity): 100%
- protectant activity against cucumber downy mildew in vivo ([1]; 25 ppm): 100%
- protectant activity against cucumber downy mildew in vivo ([1]; 50 ppm): 100%
- protectant activity against cucumber downy mildew in vivo ([1]; 100 ppm): 100%
- protectant activity against cucumber downy mildew in vivo ([1]; 400 ppm): 100%
- protectant activity against corn rust in vivo ([2]; 100 ppm): 100%
- protectant activity against corn rust in vivo ([2]; 400 ppm): 100%
- control (test results against diamond back moth) [3]: 100%
- control against carmine spider mite ([4]; 600 ppm): 100%
- protectant activity against wheat powdery mildew in vivo ([5]; 400 ppm): 100%
- control (test results against green peach aphid) ([6]; 100 ppm): 100%
- control (test results against green peach aphid) ([6]; 600 ppm): 100%

Compound: CCc1ncnc(NCCc2ccc(Oc3ccccc3Cl)nc2)c1Cl [III-185]
- protectant activity against corn rust in vivo ([2]; 400 ppm): 100%
- control (test results against diamond back moth) [3]: 100%
- control against carmine spider mite ([4]; 600 ppm): 100%
- protectant activity against wheat powdery mildew in vivo ([5]; 400 ppm): 100%
- control (test results against green peach aphid) ([6]; 100 ppm): 100%
- control (test results against green peach aphid) ([6]; 600 ppm): 100%

Compound: Cc1nc(Cl)c(Cl)c(NCCc2ccc(Oc3ccc(Cl)cc3)nc2)n1 [III-2527]
- control effect against cucumber downy mildew (%) ([1]; 6.25 mg/L, protectant activity): 75%
- control effect against cucumber downy mildew (%) ([1]; 12.5 mg/L, protectant activity): 100%
- control effect against cucumber downy mildew (%) ([1]; 25 mg/L, protectant activity): 100%
- control effect against cucumber downy mildew (%) ([1]; 50 mg/L, protectant activity): 100%
- control effect against cucumber downy mildew (%) ([1]; 100 mg/L, protectant activity): 100%
- control effect against cucumber downy mildew (%) ([1]; 400 mg/L, protectant activity): 100%
- protectant activity against cucumber downy mildew in vivo ([1]; 12.5 ppm): 100%
- protectant activity against cucumber downy mildew in vivo ([1]; 25 ppm): 100%
- protectant activity against cucumber downy mildew in vivo ([1]; 50 ppm): 100%
- protectant activity against cucumber downy mildew in vivo ([1]; 100 ppm): 100%
- protectant activity against cucumber downy mildew in vivo ([1]; 400 ppm): 100%
- control (test results against diamond back moth) [3]: 100%
- control (test results against green peach aphid) ([6]; 600 ppm): 100%
- control (test results against armyworm) ([7]; 600 ppm): 100%
